# Measurements published in ChEMBL document CHEMBL3885881, “DrugMatrix”.
# Organism: Rattus norvegicus
# Assay: DrugMatrix - Regimen: Daily Repeat
# Type: toxicity, organism-based, Sprague-Dawley
# Design: regimen Daily Repeat, gender Male, age 6-8 weeks
# Settings: in vivo, vehicle 100 % SALINE; for ABSOLUTE BASOPHIL / ABSOLUTE EOSINOPHIL / ABSOLUTE LYMPHOCYTE / ABSOLUTE MONOCYTE / ABSOLUTE SEGMENTED NEUTROPHIL / BASOPHIL / EOSINOPHIL / ERYTHROCYTE COUNT / HEMOGLOBIN / LEUKOCYTE COUNT / LYMPHOCYTE / MEAN CORPUSCULAR HEMOGLOBIN / MEAN CORPUSCULAR HEMOGLOBIN CONCENTRATION / MEAN CORPUSCULAR VOLUME / NUCLEATED RED BLOOD CELLS / PLATELET COUNT: tissue Blood
# [1] = iv, 0.004 mg/kg, 72 h, dose level Low, time 3 day
# [2] = iv, 0.004 mg/kg, 72 h, tissue Plasma, dose level Low, time 3 day
# [3] = iv, 0.004 mg/kg, 120 h, dose level Low, time 5 day
# [4] = iv, 0.004 mg/kg, 120 h, tissue Plasma, dose level Low, time 5 day
# [5] = sc, 0 mg/kg, 72 h, route mini-PUMP - SUBCUTANEOUS, dose level Control, time 3 day
# [6] = sc, 0 mg/kg, 72 h, tissue Plasma, route mini-PUMP - SUBCUTANEOUS, dose level Control, time 3 day
compound,measurement,setting,value
CNC[C@H](O)c1ccc(O)c(O)c1 [EPINEPHRINE],ABSOLUTE BASOPHIL,[1],0 CELLS/uL
same,ABSOLUTE EOSINOPHIL,[1],127.67 CELLS/uL
same,ABSOLUTE LYMPHOCYTE,[1],11755 CELLS/uL
same,ABSOLUTE MONOCYTE,[1],0 CELLS/uL
same,ABSOLUTE SEGMENTED NEUTROPHIL,[1],884 CELLS/uL
same,BASOPHIL,[1],0%
same,EOSINOPHIL,[1],1%
same,ERYTHROCYTE COUNT,[1],5.71 x10E6/uL
same,HEMOGLOBIN,[1],14.07 G/DL
same,LEUKOCYTE COUNT,[1],12.77 x10E3/uL
same,LYMPHOCYTE,[1],92%
same,MEAN CORPUSCULAR HEMOGLOBIN,[1],24.73 pg
same,MEAN CORPUSCULAR HEMOGLOBIN CONCENTRATION,[1],37.8 G/DL
same,MEAN CORPUSCULAR VOLUME,[1],65.37 fL
same,NUCLEATED RED BLOOD CELLS,[1],0 /100WBC
same,PLATELET COUNT,[1],1271 x10E3/uL
same,ALANINE AMINOTRANSFERASE,[2],57.33 u/L
same,ALBUMIN,[2],4.43 G/DL
same,ALKALINE PHOSPHATASE,[2],425 u/L
same,ASPARTATE AMINOTRANSFERASE,[2],75 u/L
same,BLOOD UREA NITROGEN,[2],14 mg/dL
same,CARBON DIOXIDE,[2],27 mmol/L
same,CHLORIDE,[2],101.33 MEQ/L
same,CHOLESTEROL,[2],80 mg/dL
same,CREATINE PHOSPHOKINASE,[2],187.33 u/L
same,CREATININE,[2],0.23 mg/dL
same,LACTATE DEHYDROGENASE,[2],118.67 u/L
same,LIPASE,[2],9 u/L
same,PHOSPHORUS,[2],12.7 mg/dL
same,POTASSIUM,[2],6.89 MEQ/L
same,SODIUM,[2],145.07 MEQ/L
same,TOTAL PROTEIN,[2],6.1 G/DL
same,ABSOLUTE BASOPHIL,[3],0 CELLS/uL
same,ABSOLUTE EOSINOPHIL,[3],147.67 CELLS/uL
same,ABSOLUTE LYMPHOCYTE,[3],10984 CELLS/uL
same,ABSOLUTE MONOCYTE,[3],0 CELLS/uL
same,ABSOLUTE SEGMENTED NEUTROPHIL,[3],1368.33 CELLS/uL
same,BASOPHIL,[3],0%
same,EOSINOPHIL,[3],1%
same,ERYTHROCYTE COUNT,[3],5.59 x10E6/uL
same,HEMOGLOBIN,[3],13.2 G/DL
same,LEUKOCYTE COUNT,[3],12.5 x10E3/uL
same,LYMPHOCYTE,[3],87.33%
same,MEAN CORPUSCULAR HEMOGLOBIN,[3],23.63 pg
same,MEAN CORPUSCULAR HEMOGLOBIN CONCENTRATION,[3],37.23 G/DL
same,MEAN CORPUSCULAR VOLUME,[3],63.47 fL
same,NUCLEATED RED BLOOD CELLS,[3],0 /100WBC
same,PLATELET COUNT,[3],1309.33 x10E3/uL
same,ALANINE AMINOTRANSFERASE,[4],48 u/L
same,ALBUMIN,[4],4.47 G/DL
same,ALKALINE PHOSPHATASE,[4],367.33 u/L
same,ASPARTATE AMINOTRANSFERASE,[4],79 u/L
same,BLOOD UREA NITROGEN,[4],16 mg/dL
same,CARBON DIOXIDE,[4],24 mmol/L
same,CHLORIDE,[4],103 MEQ/L
same,CHOLESTEROL,[4],67.33 mg/dL
same,CREATINE PHOSPHOKINASE,[4],204.67 u/L
same,CREATININE,[4],0.23 mg/dL
same,LACTATE DEHYDROGENASE,[4],102.67 u/L
same,LIPASE,[4],8 u/L
same,PHOSPHORUS,[4],13.37 mg/dL
same,POTASSIUM,[4],6.61 MEQ/L
same,SODIUM,[4],145.67 MEQ/L
same,TOTAL PROTEIN,[4],6.3 G/DL
same,ABSOLUTE BASOPHIL,[5],0 CELLS/uL
same,ABSOLUTE EOSINOPHIL,[5],77.17 CELLS/uL
same,ABSOLUTE LYMPHOCYTE,[5],14293.83 CELLS/uL
same,ABSOLUTE MONOCYTE,[5],354 CELLS/uL
same,ABSOLUTE SEGMENTED NEUTROPHIL,[5],1658.33 CELLS/uL
same,BASOPHIL,[5],0%
same,EOSINOPHIL,[5],0.5%
same,ERYTHROCYTE COUNT,[5],6.27 x10E6/uL
same,HEMOGLOBIN,[5],13.4 G/DL
same,LEUKOCYTE COUNT,[5],16.38 x10E3/uL
same,LYMPHOCYTE,[5],87.17%
same,MEAN CORPUSCULAR HEMOGLOBIN,[5],21.42 pg
same,MEAN CORPUSCULAR HEMOGLOBIN CONCENTRATION,[5],36.27 G/DL
same,MEAN CORPUSCULAR VOLUME,[5],59.03 fL
same,NUCLEATED RED BLOOD CELLS,[5],0 /100WBC
same,PLATELET COUNT,[5],904.67 x10E3/uL
same,ALANINE AMINOTRANSFERASE,[6],48.33 u/L
same,ALBUMIN,[6],3.82 G/DL
same,ALKALINE PHOSPHATASE,[6],282.33 u/L
same,ASPARTATE AMINOTRANSFERASE,[6],86.83 u/L
same,BLOOD UREA NITROGEN,[6],20.17 mg/dL
same,CARBON DIOXIDE,[6],34.67 mmol/L
same,CHLORIDE,[6],102 MEQ/L
same,CHOLESTEROL,[6],71.5 mg/dL
same,CREATININE,[6],0.2 mg/dL
same,LACTATE DEHYDROGENASE,[6],159 u/L
same,LIPASE,[6],9 u/L
same,PHOSPHORUS,[6],10.12 mg/dL
same,POTASSIUM,[6],5.92 MEQ/L
same,SODIUM,[6],147.8 MEQ/L
same,TOTAL BILIRUBIN,[6],0.2 mg/dL
